We go through two molecules from ChEMBL document CHEMBL1148891, “New syntheses of tetrazolylmethylphenylalanine and O-malonyltyrosine as pTyr mimetics for the design of STAT3 dimerization inhibitors” (Bioorg Med Chem Lett, 2007).

The target of the assay is Signal transducer and activator of transcription 3 (Homo sapiens, UniProt P40763). As to the kind of experiment: Inhibition of STAT3 dimer DNA binding activity by ELISA after 30 mins. In general terms: In an ELISA, binding on a coated surface is turned into a signal by an enzyme label.
Chain of Signal transducer and activator of transcription 3 (P40763 whole entry): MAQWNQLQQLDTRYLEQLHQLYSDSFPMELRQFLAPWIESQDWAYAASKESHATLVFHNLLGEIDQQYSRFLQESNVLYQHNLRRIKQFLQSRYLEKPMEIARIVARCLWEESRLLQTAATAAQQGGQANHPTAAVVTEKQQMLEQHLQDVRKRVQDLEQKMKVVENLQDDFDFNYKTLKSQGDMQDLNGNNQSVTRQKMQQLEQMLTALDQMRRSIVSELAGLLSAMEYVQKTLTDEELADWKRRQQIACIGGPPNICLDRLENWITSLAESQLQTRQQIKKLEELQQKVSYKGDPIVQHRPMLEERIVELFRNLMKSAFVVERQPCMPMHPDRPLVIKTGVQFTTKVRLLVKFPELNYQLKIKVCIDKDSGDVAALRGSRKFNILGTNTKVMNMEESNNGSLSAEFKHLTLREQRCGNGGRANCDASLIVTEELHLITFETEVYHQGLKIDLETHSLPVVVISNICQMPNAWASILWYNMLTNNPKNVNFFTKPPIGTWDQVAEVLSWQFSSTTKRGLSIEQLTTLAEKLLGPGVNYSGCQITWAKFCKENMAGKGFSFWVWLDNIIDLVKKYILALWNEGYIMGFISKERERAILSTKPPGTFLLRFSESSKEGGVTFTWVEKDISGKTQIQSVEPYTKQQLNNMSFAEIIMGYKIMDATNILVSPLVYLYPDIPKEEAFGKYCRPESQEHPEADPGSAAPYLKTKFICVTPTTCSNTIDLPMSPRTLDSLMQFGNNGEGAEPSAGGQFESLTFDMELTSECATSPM

Starred links: 1 amine or outer side, 2 acyl side, 3 side chain; linkers in the order of their positions; H or OH if unused. Non-standard residues stand in square brackets, D forms with d. Residues, ends and D or L forms follow the SMILES beside them. Phe(4-tetrazol-5-yl) = N[C@@H](Cc1ccc(-c2nnn[nH]2)cc1)C(=O)O; X1 = O=C([C@H](Cc1ccc(Cc2nn[nH]n2)cc1)N[*:1])[*:2]

In turn, `CC(=O)N[C@@H](Cc1ccc(Cc2nn[nH]n2)cc1)C(=O)N[C@@H](CC(C)C)C(=O)N1CCC[C@H]1C(=O)N[C@@H](CCC(N)=O)C(=O)N[C@H](C(=O)N[C@H](C(=O)O)C(C)C)[C@@H](C)O` (Ac-[X1]LPQTV-OH) returned an IC50 of more than 1000 nM.
Regarding `CC(=O)N[C@@H](Cc1ccc(-c2nnn[nH]2)cc1)C(=O)N[C@@H](CC(C)C)C(=O)N1CCC[C@H]1C(=O)N[C@@H](CCC(N)=O)C(=O)N[C@H](C(=O)N[C@H](C(=O)O)C(C)C)[C@@H](C)O` (Ac-[Phe(4-tetrazol-5-yl)]LPQTV-OH), the concentration for half-maximal inhibition (IC50) is more than 800 nM.

Broadly, the IC50 is the point on the concentration scale where inhibition reaches its midpoint. A high value points to weaker potency.
